pIC50: −log10 of the molar value.
Columns and labels:
Ba/F3 cells KRAS G12D = assay: Ba/F3 proliferation assay (KRAS G12D); type: cell-based; conditions: AlamarBlue viability
In short: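 Ba/F3 cells retrovirally transduced with KRAS G12 mutant, puromycin-selected, grown IL-3-independent; seeded in RPMI-1640 + 10% FCS without IL-3. Logarithmic compound dose series in duplicate, 72 h at 37° C., AlamarBlue fluorescence as % of DMSO control; IC50 from four-parameter non-linear regression.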

[1] = Plasma protein binding assay (PPB), equilibrium dialysis; type: in vitro ADME; conditions: 10% FCS in PBS; for fraction unbound: bovine, read-out: PPB 10% FCS (% fu)
Protocol: Binding of test compounds to plasma was determined using equilibrium dialysis (ED) and quantitative mass spectrometry interfaced with liquid chromatography (LC-MS). In brief, ED was performed with dialysis devices consisting of two chambers separated by a semipermeable membrane with a molecular weight cut-off of 5-10 kg/mol. One chamber was filled with 10% FCS in PBS containing 1-10 μmol/L test compound and the other chamber was filled with phosphate-buffer saline (PBS) with or without dextran. The dialysis chamber was incubated for 3-5 hours at 37° C. After incubation, protein was precipitated from aliquots of each chamber and the concentration of test compound in the supernatant of the plasma-containing compartment (cserum) and of the buffer-containing compartment (cbuffer) was determined by LC-MS. The fraction of unbound test compound (not bound to plasma) (f) was calculated according to the following equation: […]

[2] = biological target: KRAS (G12C)::SOS1 protein-protein interaction (Homo sapiens (Human), UniProt P01116, C118S/C51S/C80L/G12C); assay: KRAS::SOS1 AlphaScreen binding assay (KRAS G12C); conditions: GDP
Source text: This assay can be used to examine the potency with which compounds according to the invention binding to (mutated) KRAS inhibit the protein-protein interaction between SOS1 and (mutated) KRAS e.g. KRAS G12C, KRAS G12D. […] Low IC50 values in this assay setting are indicative of strong inhibition of protein-protein interaction between SOS1 and KRAS:
These assays measure the inhibitory effect of compounds on KRAS mutant protein-protein interactions using the Alpha Screen technology by Perkin Elmer.
The following (mutant) enzyme forms of KRAS and interacting proteins are used in these assays at the given concentrations:
KRAS (G12C) 1-169, N-terminal 6His-tag for purification, cleaved off, C-terminal avi-tag, biotinylated, mutations: C51S, C80L, C118S (in house); final assay concentration 7.5 nM and SOS1 564-1049, N-terminal 229 GST-tag, TEV cleavage site (Viva Biotech Ltd); final assay concentration 5 nM;
Test compounds dissolved in DMSO are dispensed onto assay plates (Proxiplate 384 PLUS, white, PerkinElmer; 6008289) using an Access Labcyte Workstation with the Labcyte Echo 55x. For the chosen highest assay concentration of 100 μM, 150 nL of compound solution are transferred from a 10 mM DMSO compound stock solution. A series of eleven fivefold dilutions per compound are transferred to the assay plate, compound dilutions are tested in duplicates. DMSO are added as backfill to a total volume of 150 nL.
The assays run on a fully automated robotic system in a darkened room below 100 Lux. To 150 nl of compound dilution 10 μl of a mix including KRAS mutant protein, SOS1 (final assay concentrations see above) and GDP nucleotide (Sigma G7127; final assay concentration 10 μM) in assay buffer (1×PBS, 0.1% BSA, 0.05% Tween 20) are added into columns 1-24.
After 30 minutes incubation time 5 μl of Alpha Screen bead mix in assay buffer are added into columns 1-23. Bead mix consists of AlphaLISA Glutathione Acceptor Beads (PerkinElmer, Cat No AL109) and AlphaScreen Streptavidin Donor Beads (PerkinElmer Cat No 6760002) in assay buffer at a final assay concentration of 10 μg/mL each.
Plates are kept at room temperature in a darkened incubator. After an additional 60 minutes incubation time the signal is measured in a PerkinElmer Envision HTS Multilabel Reader using the AlphaScreen specs from PerkinElmer.
Each plate contains up to 16 wells of a negative control depending on the dilution procedure (platewise or serial) (DMSO instead of test compound; with KRAS mutant::SOS1 GOP mix and bead mix; column 23) and 16 wells of a positive control (DMSO instead of test compound; with KRAS mutant::SOS1 GOP mix w/o bead mix; column 24).
As internal control known inhibitors of KRAS mutant::SOS1 interaction can be measured on each compound plate.
IC50 values are calculated and analyzed with Boehringer Ingelheim's MEGALAB C50 application using a 4 parametric logistic model.
Tables of example compounds disclosed herein contain IC50 values determined using the above assays (see Table 43).

Chain of KRAS (G12C)::SOS1 protein-protein interaction (P01116 other isoform, or with tags, fused parts or gaps G12C/C51S/C80L/C118S): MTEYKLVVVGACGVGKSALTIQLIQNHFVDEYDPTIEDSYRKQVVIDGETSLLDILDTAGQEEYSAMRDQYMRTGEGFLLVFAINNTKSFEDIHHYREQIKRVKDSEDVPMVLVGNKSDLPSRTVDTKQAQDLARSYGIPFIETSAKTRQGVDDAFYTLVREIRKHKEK

SMILES	pIC50 (Ba/F3 cells KRAS G12D; Mus musculus, BaF3, 72 h)	fraction unbound [1]	pIC50 [2]	pIC50 (Ba/F3 cells KRAS G12D; 72 h)	PPB 10% FCS (% fu) ([1]; fraction unbound)
CCn1c(=O)n([C@@H]2CCCOC2)c2nc(-c3onc4c3CCC[C@@]43CCCc4sc(N)c(C#N)c43)nc(O[C@@H](C)C34CCCN3CCC4)c21 [I-36]	7.02	0.06	8.70	–	–
CO[C@H]1CCN(C)[C@@H]1[C@H](C)Oc1nc(-c2noc3c2CCC[C@@]32CCCc3sc(N)c(C#N)c32)nc2c1n(C)c(=O)n2[C@@H]1CCOC1 [II-1]	8.05	0.09	9.00	–	–
CO[C@H]1CCN(C)[C@@H]1[C@H](C)Oc1nc(-c2noc3c2CCC[C@@]32CCCc3sc(N)c(C#N)c32)nc2c1n(C)c(=O)n2[C@@H]1CCCOC1 [II-3]	8.05	0.03	8.70	–	–
C[C@H](Oc1nc(-c2noc3c2CCC[C@@]32CCCc3sc(N)c(C#N)c32)nc2c1CN(c1ncccn1)[C@]21CCOC1)[C@@H]1CCCN1C [II-7a]	7.55	0.02	8.70	–	–
C[C@H](Oc1nc(-c2noc3c2CCC[C@@]32CCCc3sc(N)c(C#N)c32)nc2c1CN(c1ncccn1)[C@@]21CCOC1)[C@@H]1CCCN1C [II-7b]	6.90	0.05	8.52	–	–
C[C@H](Oc1nc(-c2noc3c2CCC[C@@]32CCCc3sc(N)c(C#N)c32)nc2c1COC[C@]21CCOC1)[C@@H]1CCCN1C [II-8]	8.40	0.13	9.00	–	–
C[C@H](Oc1nc(-c2noc3c2CCC[C@@]32CCCc3sc(N)c(C#N)c32)nc2c1COC[C@@]21CCOC1)[C@@H]1CCCN1C [II-9a]	7.23	0.07	8.70	–	–
C[C@H](Oc1nc(-c2noc3c2CCC[C@@]32CCCc3sc(N)c(C#N)c32)nc2c1CCO[C@]21CCOC1)[C@@H]1CCCN1C [II-9b]	8.10	0.09	9.00	–	–
C[C@H](Oc1nc(-c2noc3c2CCC[C@@]32CCCc3sc(N)c(C#N)c32)nc2c1CCCO[C@]21CCOC1)[C@@H]1CCCN1C [II-10]	7.66	0.28	9.00	–	–
CO[C@@H]1C[C@@H]([C@H](C)Oc2nc(-c3noc4c3CCC[C@@]43CCCc4sc(N)c(C#N)c43)nc3c2COC[C@]32CCOC2)N(C)C1 [II-11]	8.40	0.09	8.70	–	–
C[C@H](Oc1nc(-c2noc3c2CCC[C@@]32CCCc3sc(N)c(C#N)c32)nc2c1CNC[C@]21CCOC1)[C@@H]1CCCN1C [II-15]	8.10	0.3	8.70	–	–
C[C@H](Oc1nc(-c2noc3c2CCC[C@@]32CCCc3sc(N)c(C#N)c32)nc2c1CC[C@]21CNCCO1)[C@@H]1C[C@@H](F)CN1C [II-20]	–	–	8.70	7.35	10 % fu

The next lines start with results.

pIC50 (Ba/F3 cells KRAS G12D; Mus musculus, BaF3, 72 h)	fraction unbound [1]	pIC50 [2]	SMILES	pIC50 (Ba/F3 cells KRAS G12D; 72 h)	PPB 10% FCS (% fu) ([1]; fraction unbound)
6.52	0.13	8.15	C[C@H](Oc1nc(-c2onc3c2CCC[C@@]32CCCc3sc(N)c(C#N)c32)nc2c1N(C)C(=O)CN2[C@@H]1CCOC1)[C@@H]1CCCN1C [I-37]	–	–
7.55	0.34	8.70	C[C@H](Oc1nc(-c2onc3c2CCC[C@@]32CCCc3sc(N)c(C#N)c32)nc2c1ncn2[C@@H]1CCOC1)[C@@H]1CCCN1C [I-38]	–	–
7.62	0.24	8.70	Cc1nc2c(O[C@@H](C)[C@@H]3CCCN3C)nc(-c3onc4c3CCC[C@@]43CCCc4sc(N)c(C#N)c43)nc2n1[C@@H]1CCOC1 [I-39]	–	–
7.55	0.09	8.70	Cc1cc2c(O[C@@H](C)[C@@H]3CCCN3C)nc(-c3onc4c3CCC[C@@]43CCCc4sc(N)c(C#N)c43)nc2n1[C@@H]1CCOC1 [I-40]	–	–
6.97	0.35	8.40	Cc1cn([C@@H]2CCOC2)c2nc(-c3onc4c3CCC[C@@]43CCCc4sc(N)c(C#N)c43)nc(O[C@@H](C)[C@@H]3CCCN3C)c12 [I-41]	–	–
7.43	0.11	8.70	Cc1nn([C@@H]2CCOC2)c2nc(-c3onc4c3CCC[C@@]43CCCc4sc(N)c(C#N)c43)nc(O[C@@H](C)[C@@H]3CCCN3C)c12 [I-42]	–	–
7.31	0.11	8.70	C[C@H](Oc1nc(-c2onc3c2CCC[C@@]32CCCc3sc(N)c(C#N)c32)nc2c1cnn2[C@@H]1CCOC1)[C@@H]1CCCN1C [I-43]	–	–
7.77	0.1	8.70	C[C@@H]1COC[C@H](n2c(=O)n(C)c3c(O[C@@H](C)[C@@H]4CCCN4C)nc(-c4onc5c4CCC[C@@]54CCCc5sc(N)c(C#N)c54)nc32)C1 [I-44]	–	–
8.40	0.34	8.70	C[C@H](Oc1nc(-c2onc3c2CCC[C@@]32CCCc3sc(N)c(C#N)c32)nc2c1COC[C@]21CCOC1)[C@@H]1CCCN1C [I-54]	–	–
8.05	0.19	9.00	C[C@H](Oc1nc(-c2noc3c2CCC[C@@]32CCCc3sc(N)c(C#N)c32)nc2c1n(C)c(=O)n2[C@@H]1CCOC1)[C@@H]1CCCN1C [II-2]	–	–
7.80	0.1	8.70	C[C@H](Oc1nc(-c2noc3c2CCC[C@@]32CCCc3sc(N)c(C#N)c32)nc2c1cnn2[C@@H]1CCOC1)[C@@H]1CCCN1C [II-4]	–	–
7.70	0.01	8.52	C[C@H](Oc1nc(-c2noc3c2CCC[C@@]32CCCc3sc(N)c(C#N)c32)nc2c1CCC21CCOC1)[C@@H]1CCCN1C (stereo partly drawn) [II-18]	–	–

Source: patent US20250019385A1, “SPIROCYCLIC ANNULATED 2-AMINO-3-CYANO THIOPHENES AND DERIVATIVES FOR THE TREATMENT OF CANCER” (Boehringer Ingelheim International GmbH, priority 2023, published 2025)
